Reference: patent US20120252865A1, “CARBAMATE DERIVATIVES IN PARTICULAR FOR THE TREATMENT OF NEUROLOGICAL DISORDERS” (SIGMA-TAU INDUSTRIE FARMACEUTICHE RIUNITE S.P.A., priority 2009, published 2012)

Assays:
[1] = tested on: pain; settings: Kathuria S., et al, Nat. Med., 2003; cited from earlier work
[2] = tested on: anxiety; settings: Kathuria S., et al, Nat. Med., 2003; cited from earlier work
[3] = tested on: mechanical hyperalgesia; test: Paw withdrawal test for mechanical hyperalgesia (Randall-Selitto analgesimeter); format: in vivo; settings: rat, 50 mg/kg (FIG. 1)
Procedure: The paw withdrawal test was used to assess mechanical hyperalgesia. The nociceptive threshold, expressed in grams, was measured by applying increasing pressure to the left and right hind paws using a Randall-Selitto analgesimeter (Ugo Basile, Varese, Italy). The parameter used to quantify the nociceptive threshold was defined as the pressure (grams) at which the rat withdrew its paw. Rats were habituated to the testing procedures and handling by the investigator in the week prior to the experiment.
Dose response experiments at 10, 30 and 100 mg/kg were also conducted with ST4068, ST3911 and ST3913.

[4] = tested on: pain; settings: Kathuria S., et al, Nat. Med., 2003; cited from earlier work; remark: listed apart in the source

Structure (SMILES): NC(=O)c1cccc(-c2cccc(OC(=O)NC3CCCCC3)c2)c1 [URB597]
- analgesic efficacy in the rat hot plate test [1]: analgesic efficacy
- efficacy in the zero plus maze animal model of anxiety [2]: efficacious
- analgesic activity (nociceptive threshold, paw withdrawal) [3]: did not show any activity
- analgesic efficacy in the rat formalin test [4]: analgesic efficacy
